What was measured:
Assay in all cases: relative viability (nuclei count vs DMSO), 5 days (fraction); higher = more cells survive
[1] = compound: NCC(=O)Nc1ccc(-n2nc(C(F)(F)F)cc2-c2ccc3c(ccc4ccccc43)c2)cc1 + O=C(CCCCCCC(=O)Nc1ccccc1)NO [Vorinostat] (partner 1 µM)
In short: (§1)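 Lung cancer cell lines, seeded in 1536-well plates, were treated the following day by pin tool with a single drug or with five library-drug doses (not always all listed) in √10 steps on top of a fixed anchor-drug dose. Cells were fixed and nuclei stained in one step after 5 days, and nuclei were counted. Relative viability is the nuclei count for treated wells divided by that for vehicle wells, reported as medians of duplicate plates.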

[2] = compound: C1CSC2=C(C(=O)N1)SC3=C2C=C(C=C3)O [kb NB 142-70] + C[C@@H](Oc1cc(-c2cnn(C3CCNCC3)c2)cnc1N)c1c(Cl)ccc(F)c1Cl [Crizotinib] (partner 1 µM)
In short: as §1

[3] = compound: NCC(=O)Nc1ccc(-n2nc(C(F)(F)F)cc2-c2ccc3c(ccc4ccccc43)c2)cc1 + Cc1cc(Nc2cc(N3CCN(C)CC3)nc(Sc3ccc(NC(=O)C4CC4)cc3)n2)n[nH]1 [Tozasertib] (partner 0.1 µM)
In short: as §1

[4] = compound: C1CSC2=C(C(=O)N1)SC3=C2C=C(C=C3)O [kb NB 142-70] + CC(=O)Nc1cccc(-n2c(=O)n(C3CC3)c(=O)c3c(Nc4ccc(I)cc4F)n(C)c(=O)c(C)c32)c1 [Trametinib] (partner 0.02 µM)
In short: as §1

[5] = compound: C1CSC2=C(C(=O)N1)SC3=C2C=C(C=C3)O [kb NB 142-70] + Nc1ncn([C@H]2C[C@H](O)[C@@H](CO)O2)c(=O)n1 [Decitabine] (partner 2 µM)
In short: as §1

Cell Line | relative viability ([1]; first compound 0.02 µM) | relative viability ([1]; first compound 0.06325 µM) | relative viability ([1]; first compound 0.2 µM) | relative viability ([1]; first compound 0.6325 µM) | relative viability ([1]; first compound 2 µM) | relative viability ([2]; first compound 0.1 µM) | relative viability ([2]; first compound 1 µM) | relative viability ([2]; first compound 3.162 µM) | relative viability ([3]; first compound 0.02 µM) | relative viability ([3]; first compound 0.06325 µM) | relative viability ([3]; first compound 0.2 µM) | relative viability ([3]; first compound 0.6325 µM) | relative viability ([3]; first compound 2 µM) | relative viability ([4]; first compound 0.1 µM) | relative viability ([4]; first compound 1 µM) | relative viability ([4]; first compound 3.162 µM) | relative viability ([5]; first compound 0.1 µM) | relative viability ([5]; first compound 1 µM) | relative viability ([5]; first compound 3.162 µM)
COR-L23 | 0.466 | 0.46 | 0.576 | 0.449 | 0.372 | 0.679 | 0.818 | 0.278 | 0.208 | 0.213 | 0.195 | 0.21 | 0.136 | 0.558 | 0.588 | 0.32 | 0.409 | 0.465 | 0.246
ABC-1 | 0.917 | 1.15 | – | 1.08 | 1.39 | 1.02 | 1.31 | 0.497 | 0.183 | 0.199 | – | 0.134 | 0.187 | – | – | – | 1.05 | 0.69 | 0.776
NCI-H522 | 0.91 | 0.836 | 0.802 | 0.973 | 0.903 | – | – | – | – | 0.589 | 0.537 | 0.505 | 0.516 | 0.799 | 0.617 | 0.566 | 0.61 | 0.698 | 0.581
NCI-H838 | 0.772 | 0.708 | 0.857 | 0.681 | 0.728 | 0.782 | 0.914 | 0.877 | 0.264 | 0.35 | 0.299 | 0.285 | 0.291 | 0.546 | 0.525 | 0.532 | 0.431 | 0.454 | 0.427
SW 900 | 0.492 | 0.464 | 0.44 | 0.546 | 0.53 | – | – | – | – | 0.509 | 0.594 | 0.533 | 0.511 | 0.73 | 1.05 | 0.682 | 0.473 | 0.4 | 0.418
A549 | – | – | – | – | – | 0.762 | 0.861 | 0.213 | – | – | – | – | – | – | – | – | 0.24 | 0.245 | 0.233
A-427 | 0.864 | 0.825 | 0.908 | 0.839 | 0.982 | 0.937 | 1.01 | 0.908 | – | 0.213 | 0.191 | 0.208 | 0.205 | 0.841 | 0.764 | 0.726 | 0.579 | 0.568 | 0.55
NCI-H1792 | – | – | – | – | – | 0.995 | 1.01 | 0.914 | – | – | – | – | – | 0.478 | 0.567 | 0.579 | 0.536 | 0.536 | 0.458
LCLC-97TM1 | 0.596 | 0.713 | 0.699 | 0.69 | 0.637 | 0.382 | 0.331 | 0.201 | 0.228 | 0.26 | 0.234 | 0.206 | 0.206 | 0.197 | 0.183 | 0.174 | 0.268 | 0.205 | 0.135
NCI-H1703 | – | – | – | – | – | 0.681 | 0.866 | 0.489 | – | – | – | – | – | – | – | – | – | – | –
LCLC-103H | 0.674 | 0.831 | 0.818 | 0.77 | 0.862 | 0.997 | 1.12 | 1.03 | 0.416 | 0.477 | 0.457 | 0.471 | 0.448 | 0.672 | 0.654 | 0.803 | 0.75 | 0.737 | 0.773
PC-3 [JPC-3] | 0.902 | 0.854 | 0.778 | 1.03 | 0.822 | 0.985 | 1.05 | 0.916 | 0.9 | 0.889 | 0.976 | 0.971 | 0.828 | 0.685 | 0.726 | 0.643 | 0.831 | 0.833 | 0.871
BEN | 0.579 | 0.526 | 0.56 | 0.593 | 0.586 | 0.791 | 0.906 | 0.69 | 0.422 | 0.499 | 0.461 | 0.464 | 0.572 | 1.02 | 0.99 | 0.892 | 0.776 | 0.741 | 0.588
NCI-H1666 | 1.03 | 1.07 | 1.13 | 0.938 | 0.944 | 1.09 | 0.871 | 0.676 | 0.579 | 0.63 | 0.578 | 0.584 | 0.572 | 0.842 | 0.934 | 0.776 | 0.76 | 0.712 | 0.603
Calu-6 | – | – | – | – | – | 0.748 | 0.839 | 0.384 | – | – | – | – | – | – | – | – | – | – | –
NCI-H1648 | 0.416 | 0.423 | 0.762 | 0.408 | 0.536 | – | – | – | 0.362 | 0.532 | 0.502 | 0.503 | 0.399 | 0.459 | 0.551 | 0.417 | 0.452 | 0.435 | 0.493
EBC-1 | – | – | – | – | – | 0.196 | 0.209 | 0.155 | – | – | – | – | – | – | – | – | – | – | –
NCI-H1299 | – | – | – | – | – | 0.928 | 0.969 | 0.893 | – | – | – | – | – | – | – | – | – | – | –
NCI-H2228 | 0.727 | 0.599 | 0.685 | 0.723 | 0.663 | 0.519 | 0.561 | 0.27 | 0.217 | 0.265 | 0.308 | 0.27 | 0.229 | 0.696 | 0.497 | 0.235 | – | – | –
NCI-H2342 | 0.871 | 0.817 | 0.663 | 0.864 | 0.743 | – | – | – | 0.652 | 0.676 | 0.45 | 0.448 | 0.492 | 0.804 | 0.857 | 0.903 | 0.66 | 0.694 | 0.748
IA-LM | 0.989 | 1.08 | 0.981 | 0.908 | 0.896 | 0.856 | 1.25 | 0.894 | – | – | – | – | – | – | – | – | – | – | –
NCI-H1793 | 0.758 | 0.874 | 0.699 | 0.793 | 0.86 | – | – | – | 0.343 | 0.346 | 0.368 | 0.393 | 0.324 | 0.399 | 0.542 | 0.463 | 0.487 | 0.544 | 0.3
CAL-12T | 0.692 | 0.822 | 1.04 | 0.684 | 0.916 | 0.605 | 0.802 | 0.611 | 0.304 | 0.368 | 0.344 | 0.334 | 0.277 | 0.341 | 0.39 | 0.241 | – | – | –
